Values of other authors in patent US6939400B2, “Ink, production method of the same materials for producing the same and printed matter with the same” (Teikoku Printing Mfg. Co., Ltd., priority 2002, dated 2005).

System: mouse

Q: With COC(C)(C)CCO [3-methyl-3-methoxy-1-butanol] as the compound, how does the “LD 50 value representing the mouse oral toxicity” value read?
A: Its value is 5,830 mg/kg.
